By pIC50 is commonly meant −log10 of the IC50, conventionally taken in molar units.

The results in this text go back to patent US20250186433A1, “ACSS2 INHIBITORS AND METHODS OF USE THEREOF” (EpiVario, Inc., priority 2017, published 2025).

The target of test [1] is T1, ACSS2 (Homo sapiens, UniProt Q9NR19). Put plainly: Thermal stabilization of recombinant ACSS2 protein (Nano-DSF). The format is binding. An excerpt: Thermal stabilization of recombinant ACSS2 protein by ACSS2 inhibitors. Interaction between the compound and recombinant ACSS2 protein was done by non-labeled Nano-DSF technic using the parameters described below. NanoDSF is a modified differential scanning fluorimetry method to determine protein stability that uses tryptophan or tyrosine fluorescence to monitor protein unfolding. The binding of compound to the protein leads to thermal stabilization that is quantified as the delta in the thermal melting points.
T1 sequence (Q9NR19 whole entry): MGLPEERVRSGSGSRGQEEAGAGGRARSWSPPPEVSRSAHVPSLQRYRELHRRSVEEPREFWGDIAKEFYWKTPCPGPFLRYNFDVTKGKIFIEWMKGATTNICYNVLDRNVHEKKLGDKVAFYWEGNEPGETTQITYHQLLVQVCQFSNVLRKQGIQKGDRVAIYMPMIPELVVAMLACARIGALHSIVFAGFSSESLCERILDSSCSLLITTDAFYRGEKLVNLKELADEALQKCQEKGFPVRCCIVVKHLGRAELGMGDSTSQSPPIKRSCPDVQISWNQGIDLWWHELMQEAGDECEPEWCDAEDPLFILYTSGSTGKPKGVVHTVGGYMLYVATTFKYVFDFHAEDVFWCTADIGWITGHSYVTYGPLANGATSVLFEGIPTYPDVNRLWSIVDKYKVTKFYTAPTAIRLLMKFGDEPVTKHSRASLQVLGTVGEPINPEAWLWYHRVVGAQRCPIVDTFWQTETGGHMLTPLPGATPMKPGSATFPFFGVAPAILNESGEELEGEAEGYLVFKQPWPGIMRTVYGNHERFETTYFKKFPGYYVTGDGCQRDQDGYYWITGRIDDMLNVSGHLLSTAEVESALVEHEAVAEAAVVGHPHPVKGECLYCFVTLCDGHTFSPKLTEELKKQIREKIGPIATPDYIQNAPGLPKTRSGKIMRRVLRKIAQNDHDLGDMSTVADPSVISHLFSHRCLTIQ
In general terms: In DSF a fluorescence change marks the thermal transition of the protein.

For test [2], the target named is T2, AACS (Homo sapiens, UniProt Q86V21).
T2 construct: purchased Cusabio, China
T2 sequence (Q86V21 1-672): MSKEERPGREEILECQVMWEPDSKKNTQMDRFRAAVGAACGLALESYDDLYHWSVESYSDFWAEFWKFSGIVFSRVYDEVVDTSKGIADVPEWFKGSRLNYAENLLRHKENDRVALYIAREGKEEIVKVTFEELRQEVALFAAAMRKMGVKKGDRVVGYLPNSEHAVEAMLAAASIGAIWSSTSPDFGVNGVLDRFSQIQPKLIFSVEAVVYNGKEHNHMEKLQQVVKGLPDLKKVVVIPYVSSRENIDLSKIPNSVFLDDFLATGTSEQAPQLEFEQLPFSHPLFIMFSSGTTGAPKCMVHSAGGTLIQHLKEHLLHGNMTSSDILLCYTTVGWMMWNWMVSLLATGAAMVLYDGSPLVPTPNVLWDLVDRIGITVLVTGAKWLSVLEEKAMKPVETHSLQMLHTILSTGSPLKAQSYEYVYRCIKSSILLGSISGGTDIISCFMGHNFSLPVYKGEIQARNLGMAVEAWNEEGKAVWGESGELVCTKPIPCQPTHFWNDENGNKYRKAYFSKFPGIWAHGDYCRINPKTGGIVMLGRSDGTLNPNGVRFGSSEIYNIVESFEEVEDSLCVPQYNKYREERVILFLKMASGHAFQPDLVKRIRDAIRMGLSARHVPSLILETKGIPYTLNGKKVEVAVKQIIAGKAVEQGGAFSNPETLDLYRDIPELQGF
In words: Acyl-CoA synthetases selectivity panel: AACS. The format is biochemical. Conditions: human recombinant protein, substrate acetoacetyl, AMP readout by HPLC; read-out: HPLC based activity assays IC50 (UM) AACS. The text has this: (§1) The biochemical assays for testing the selectivity of the compounds according to this invention, were done using human recombinant proteins (Cusabio, China). The readout of the assays was AMP levels, the […] of the reactions, by HPLC method. The acyl substrates (Sigma-Aldrich) of the assays were as followed: ACSS1/ACSS2—Acetate, AACS-Acetoacetyl, ACSF2—Octanoate and ACSL5—Palmitate. The protein in this panel include ACSS1, the closest homolog of ACSS2, in addition to representative short/medium/long chain acyl-CoA syntatases.

Test [3] concerns the target T3, ACSS1 (Homo sapiens, UniProt Q9NUB1).
T3 construct: purchased Cusabio, China
T3 sequence (Q9NUB1 38-689): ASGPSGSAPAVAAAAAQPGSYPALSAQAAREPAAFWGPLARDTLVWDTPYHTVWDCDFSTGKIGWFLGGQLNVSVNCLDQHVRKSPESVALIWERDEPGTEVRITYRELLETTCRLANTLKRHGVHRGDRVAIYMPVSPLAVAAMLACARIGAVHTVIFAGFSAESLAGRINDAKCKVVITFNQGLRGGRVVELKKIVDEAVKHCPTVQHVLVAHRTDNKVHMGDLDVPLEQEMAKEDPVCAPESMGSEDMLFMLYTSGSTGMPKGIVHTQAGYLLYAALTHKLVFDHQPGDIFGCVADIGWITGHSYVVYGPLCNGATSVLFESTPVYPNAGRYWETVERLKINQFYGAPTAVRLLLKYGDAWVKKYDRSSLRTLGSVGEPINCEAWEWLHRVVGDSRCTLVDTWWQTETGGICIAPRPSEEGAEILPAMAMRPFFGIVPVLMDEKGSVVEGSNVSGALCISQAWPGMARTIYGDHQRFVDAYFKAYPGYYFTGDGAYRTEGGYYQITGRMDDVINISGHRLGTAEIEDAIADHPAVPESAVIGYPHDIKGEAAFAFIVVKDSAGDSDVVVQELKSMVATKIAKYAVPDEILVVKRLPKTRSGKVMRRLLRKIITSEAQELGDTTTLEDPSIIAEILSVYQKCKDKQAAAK
Put plainly: Acyl-CoA synthetases selectivity panel: ACSS1. Format: biochemical. Conditions: human recombinant protein, substrate acetate, AMP readout by HPLC; read-out: HPLC based activity assays IC50 (UM) ACSS1.
From the text: as §1

Test [4] deals with T4, ACSF2 (Homo sapiens, UniProt Q96CM8).
T4 construct: purchased Cusabio, China
T4 sequence (Q96CM8 42-615): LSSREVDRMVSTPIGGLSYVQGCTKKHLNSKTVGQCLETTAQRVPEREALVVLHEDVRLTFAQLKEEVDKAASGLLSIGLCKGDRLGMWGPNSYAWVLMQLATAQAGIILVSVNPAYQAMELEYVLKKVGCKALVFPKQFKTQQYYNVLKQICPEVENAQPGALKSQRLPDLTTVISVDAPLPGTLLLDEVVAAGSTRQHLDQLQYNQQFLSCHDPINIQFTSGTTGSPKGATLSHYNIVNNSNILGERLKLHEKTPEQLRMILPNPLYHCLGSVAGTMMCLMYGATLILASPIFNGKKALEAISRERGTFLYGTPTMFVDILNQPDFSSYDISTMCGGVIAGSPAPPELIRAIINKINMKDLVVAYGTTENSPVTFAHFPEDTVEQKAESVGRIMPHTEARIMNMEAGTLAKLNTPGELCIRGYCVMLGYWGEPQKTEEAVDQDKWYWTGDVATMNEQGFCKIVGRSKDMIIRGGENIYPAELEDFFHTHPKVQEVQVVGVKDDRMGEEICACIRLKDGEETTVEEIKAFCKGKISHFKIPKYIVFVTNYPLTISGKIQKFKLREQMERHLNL
In words: Acyl-CoA synthetases selectivity panel: ACSF2. The format is biochemical. Conditions: human recombinant protein, substrate octanoate, AMP readout by HPLC; read-out: HPLC based activity assays IC50 (UM) ACSF2.
From the text: as §1

For test [5], the target named is T1, ACSS2. In words: Acyl-CoA synthetases selectivity panel: ACSS2. The arrangement: purchased Cusabio, China. Format: biochemical. Conditions: human recombinant protein, substrate acetate, AMP readout by HPLC; read-out: HPLC based activity assays IC50 (UM) ACSS2.
From the text: as §1

Each structure is given as a SMILES string. pIC50: −log10 of the molar value.

Consider `COC(=O)c1cccc(N2N=C(C)C(C(=O)Nc3cccc(C(C)(F)F)c3)C2=O)c1` (stereo not drawn) [compound 261, methyl 3-(4-((3-(1,1-difluoroethyl)phenyl)carbamoyl)-3-methyl-5-oxo-4,5-dihydro-1H-pyrazol-1-yl)benzoate], for which the “thermal shift in the melting temperature of ACSS2” value in test [1] (0.03 mg/ml ACSS2, compound at different concentrations) was “dose-dependent thermal shift in the melting temperature of ACSS2”. In addition, the “thermal shift in the presence of ATP or ATP and CoA versus buffer alone” value in test [1] (0.3 mM ATP, 0.3 mM ATP + 0.01 mM CoA) was “higher in the presence of ATP or ATP and CoA”. Further, the negative logarithm of the IC50 (pIC50) is 4.62 in test [2], 5.00 to 6.00 in test [3], 4.34 in test [4] and greater than 9.00 in test [5].
